# Test: Cannabinoid stability in solution (time course incubation)
# Assay type: physicochemical
# Conditions: room temperature, shielded from light
# Procedure: Rather, levels increased slightly in all treatments. The absence of any residual UGTs were cross-check and confirmed as the samples were purified by SPE, washed and eluted in 30% and 65%-100% ethanol, respectively.
# Materials and Methods Example 19: Cannabinoid Stability in Solution.
# The present inventors generated a stock solution of the CBD/CBDA+glycosides mixture in water which was further diluted 10× in all treatment solutions. A 10 mL starting volume was used for all treatments, and all treatments were prepared in triplicate. […] Each sample was incubated at room temperature. Samples were stored in 15 mL polypropylene centrifuge tubes. All samples were shielded from light—tubes were wrapped in aluminum foil. Each sample was prepared in triplicate in the following buffers: water only; pH=3; pH=4; pH=7; pH=8; water only+10 mM ascorbic acid; pH=3+10 mM ascorbic acid; pH=4+10 mM ascorbic acid; pH=7+10 mM ascorbic acid; and pH=8+10 mM ascorbic acid.
# [1] = Water + AA (10 mM ascorbic acid)
# [2] = pH = 3 + AA (10 mM ascorbic acid)
# [3] = pH = 4 + AA (10 mM ascorbic acid)
# [4] = pH = 7 + AA (10 mM ascorbic acid)
# [5] = pH = 8 + AA (10 mM ascorbic acid)
compound,measurement,setting,value
C=C(C)C1CCC(C)=CC1c1c(O)cc(CCCCC)cc1OC1OC(CO)C(O)C(O)C1O (centres unmarked) [1X CBD Gly],Day 1 concentration in solution,[1],7.99 ± 4.17 µg/mL
same,Day 1 concentration in solution,Water,1.20 ± 21.68 µg/mL
same,Day 1 concentration in solution,[2],9.78 ± 5.27 µg/mL
same,Day 1 concentration in solution,pH = 3,8.83 ± 1.80 µg/mL
same,Day 1 concentration in solution,[3],5.82 ± 3.11 µg/mL
same,Day 1 concentration in solution,pH = 4,below LOQ
same,Day 1 concentration in solution,[4],5.73 ± 4.70 µg/mL
same,Day 1 concentration in solution,pH = 7,15.45 ± 0.07 µg/mL
same,Day 1 concentration in solution,[5],1.04 ± 4.15 µg/mL
same,Day 1 concentration in solution,pH = 8,12.86 ± 4.15 µg/mL
same,Day 4 concentration in solution,[1],17.55 ± 5.99 µg/mL
same,Day 4 concentration in solution,Water,15.11 ± 10.77 µg/mL
same,Day 4 concentration in solution,[2],17.99 ± 4.60 µg/mL
same,Day 4 concentration in solution,pH = 3,18.94 ± 4.88 µg/mL
same,Day 4 concentration in solution,[3],17.02 ± 5.68 µg/mL
same,Day 4 concentration in solution,pH = 4,29.03 ± 8.17 µg/mL
same,Day 4 concentration in solution,[4],19.96 ± 9.83 µg/mL
same,Day 4 concentration in solution,pH = 7,19.64 ± 3.44 µg/mL
same,Day 4 concentration in solution,[5],15.86 ± 2.63 µg/mL
same,Day 4 concentration in solution,pH = 8,26.99 ± 15.29 µg/mL
same,Day 5 concentration in solution,[1],19.70 ± 0.80 µg/mL
same,Day 5 concentration in solution,Water,14.60 ± 1.31 µg/mL
same,Day 5 concentration in solution,[2],19.29 ± 3.26 µg/mL
same,Day 5 concentration in solution,pH = 3,18.00 ± 0.59 µg/mL
same,Day 5 concentration in solution,[3],19.34 ± 1.90 µg/mL
same,Day 5 concentration in solution,pH = 4,18.26 ± 0.52 µg/mL
same,Day 5 concentration in solution,[4],19.05 ± 3.91 µg/mL
same,Day 5 concentration in solution,pH = 7,17.50 ± 1.63 µg/mL
same,Day 5 concentration in solution,[5],20.14 ± 1.73 µg/mL
same,Day 5 concentration in solution,pH = 8,19.73 ± 0.55 µg/mL
same,Day 6 concentration in solution,[1],34.98 ± 9.28 µg/mL
same,Day 6 concentration in solution,Water,8.56 ± 7.04 µg/mL
same,Day 6 concentration in solution,[2],27.67 ± 9.51 µg/mL
same,Day 6 concentration in solution,pH = 3,21.59 ± 7.97 µg/mL
same,Day 6 concentration in solution,[3],31.67 ± 4.29 µg/mL
same,Day 6 concentration in solution,pH = 4,32.87 ± 8.08 µg/mL
same,Day 6 concentration in solution,[4],30.43 ± 4.82 µg/mL
same,Day 6 concentration in solution,pH = 7,46.80 ± 10.12 µg/mL
same,Day 6 concentration in solution,[5],32.97 ± 1.31 µg/mL
same,Day 6 concentration in solution,pH = 8,44.10 ± 3.45 µg/mL
same,Day 7 concentration in solution,[1],24.99 ± 7.29 µg/mL
same,Day 7 concentration in solution,Water,23.89 ± 5.27 µg/mL
same,Day 7 concentration in solution,[2],19.38 ± 0.46 µg/mL
same,Day 7 concentration in solution,pH = 3,27.06 ± 4.05 µg/mL
same,Day 7 concentration in solution,[3],23.30 ± 3.95 µg/mL
same,Day 7 concentration in solution,pH = 4,26.96 ± 0.46 µg/mL
same,Day 7 concentration in solution,[4],39.57 ± 4.63 µg/mL
same,Day 7 concentration in solution,pH = 7,22.14 ± 6.83 µg/mL
same,Day 7 concentration in solution,[5],37.93 ± 2.89 µg/mL
same,Day 7 concentration in solution,pH = 8,32.42 ± 8.76 µg/mL

# From patent US11946059B2, “In vivo generation of water-soluble cannabinoids in plant cell suspension cultures” (Trait Biosciences Inc., priority 2017, dated 2024)
